Assays:
Format in all cases: in vivo
[1] = tested on: Euschistus heros (Neotropical Brown Stink Bug); test: Example B7: Activity against Euschistus heros, sprayed soybean leaf; settings: 120 h, application rate 200 ppm, N-2 nymphs, 5 days after infestation
Method: Example B7: Activity Against Euschistus heros (Neotropical Brown Stink Bug)
Soybean leaf on agar in 24-well microtiter plates were sprayed with aqueous test solutions prepared from 10′000 ppm DMSO stock solutions. After drying the leaf were infested with N-2 nymphs. The samples were assessed for mortality 5 days after infestation.

[2] = tested on: Tetranychus urticae (Two-Spotted Spider Mite); test: Example B12: Activity against Tetranychus urticae, sprayed bean leaf discs; settings: foliar, 192 h, application rate 200 ppm, mixed population (mobile stages), 8 days after infestation
Method: Example B12: Activity Against Tetranychus urticae (Two-Spotted Spider Mite)
Bean leaf discs on agar in 24-well microtiter plates were sprayed with aqueous test solutions prepared from 10′000 ppm DMSO stock solutions. After drying the leaf discs were infested with a mite population of mixed ages. The samples were assessed for mortality on mixed population (mobile stages) 8 days after infestation.

[3] = tested on: Diabrotica Balteata (Corn Root Worm); test: Example B4: Activity against Diabrotica balteata, sprayed maize sprouts; settings: 96 h, application rate 200 ppm, L2 larvae, 4 days after infestation, read-out: effect in at least one of the two categories (mortality or growth inhibition)
Method: Example B4: Activity Against Diabrotica Balteata (Corn Root Worm)
Maize sprouts, placed on an agar layer in 24-well microtiter plates were treated with aqueous test solutions prepared from 10′000 ppm DMSO stock solutions by spraying. After drying, the plates were infested with L2 larvae (6 to 10 per well). The samples were assessed for mortality and growth inhibition in comparison to untreated samples 4 days after infestation.

[4] = tested on: Spodoptera littoralis (Egyptian Cotton Leaf Worm); test: Example B1: Activity against Spodoptera littoralis, sprayed cotton leaf discs; settings: foliar, 72 h, application rate 200 ppm, L1 larvae, 3 days after infestation, read-out: control in at least one of the three categories (mortality, anti-feedancy or growth inhibition)
How it was run: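 Cotton leaf discs on agar were sprayed with aqueous dilutions of 10′000 ppm DMSO stocks, dried, and infested with five L1 larvae. Mortality, anti-feedant effect and growth inhibition were scored 3 days after infestation against untreated discs. Control means at least one of these exceeds the untreated sample.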

[5] = tested on: Plutella xylostella (Diamond Back Moth); test: Example B3: Activity against Plutella xylostella, artificial diet; settings: 120 h, application rate 200 ppm, L2 larvae, 5 days after infestation, read-out: effect in at least one of the two categories (mortality or growth inhibition)
Method: Example B3: Activity Against Plutella xylostella (Diamond Back Moth)
24-well microtiter plates with artificial diet were treated with aqueous test solutions prepared from 10′000 ppm DMSO stock solutions by pipetting. After drying, the plates were infested with L2 larvae (10 to 15 per well). The samples were assessed for mortality and growth inhibition in comparison to untreated samples 5 days after infestation.

[6] = tested on: Spodoptera littoralis (Egyptian Cotton Leaf Worm); test: Example B2: Activity against Spodoptera littoralis, systemic via lettuce roots in agar; settings: 144 h, application rate 12.5 ppm, 6 days after infestation, read-out: control in at least one of the three categories (mortality, anti-feedancy or growth inhibition)
Description: Example B2: Activity Against Spodoptera littoralis (Egyptian Cotton Leaf Worm)
Test compounds were applied by pipette from 10′000 ppm DMSO stock solutions into 24-well plates and mixed with agar. Lettuce seeds were placed on the agar and the multi well plate was closed by another plate which contains also agar. After 7 days the roots have absorbed the compound and the lettuce has grown into the lid plate. The lettuce leafs were now cut off into the lid plate. Spodoptera eggs were pipetted through a plastic stencil on a humid gel blotting paper and the plate closed with it.
The samples were assessed for mortality, anti-feedant effect and growth inhibition in comparison to untreated samples 6 days after infestation.

[7] = tested on: Bemisia tabaci (Cotton White Fly); test: Example B6: Activity against Bemisia tabaci, sprayed cotton leaf discs; settings: foliar, 144 h, application rate 200 ppm, adult white flies, 6 days after incubation
Method: Example B6: Activity Against Bemisia tabaci (Cotton White Fly)
Cotton leaf discs were placed on agar in 24-well microtiter plates and sprayed with aqueous test solutions prepared from 10′000 ppm DMSO stock solutions. After drying the leaf discs were infested with adult white flies. The samples were checked for mortality 6 days after incubation.

[8] = tested on: Myzus persicae (Green Peach Aphid); test: Example B8: Activity against Myzus persicae, sprayed sunflower leaf discs; settings: foliar, 144 h, application rate 200 ppm, aphid population of mixed ages, 6 days after infestation
Method: Example B8: Activity Against Myzus persicae (Green Peach Aphid)
Sunflower leaf discs were placed on agar in a 24-well microtiter plate and sprayed with aqueous test solutions prepared from 10′000 ppm DMSO stock solutions. After drying, the leaf discs were infested with an aphid population of mixed ages. The samples were assessed for mortality 6 days after infestation.

[9] = tested on: Thrips tabaci (Onion Thrips); test: Example B11: Activity against Thrips tabaci, sprayed sunflower leaf discs; settings: foliar, 144 h, application rate 200 ppm, thrips population of mixed ages, 6 days after infestation
Method: Example B11: Activity Against Thrips tabaci (Onion Thrips)
Sunflower leaf discs were placed on agar in 24-well microtiter plates and sprayed with aqueous test solutions prepared from 10′000 ppm DMSO stock solutions. After drying the leaf discs were infested with a thrips population of mixed ages. The samples were assessed for mortality 6 days after infestation.

[10] = tested on: Frankliniella occidentalis (Western Flower Thrips); test: Example B5: Activity against Frankliniella occidentalis, sprayed sunflower leaf discs; settings: foliar, 168 h, application rate 200 ppm, population of mixed ages, 7 days after infestation
Method: Example B5: Activity Against Frankliniella occidentalis (Western Flower Thrips)
Sunflower leaf discs were placed on agar in 24-well microtiter plates and sprayed with aqueous test solutions prepared from 10′000 ppm DMSO stock solutions. After drying the leaf discs were infested with a Frankliniella population of mixed ages. The samples were assessed for mortality 7 days after infestation.

[11] = tested on: Myzus persicae (Green Peach Aphid); test: Example B9: Activity against Myzus persicae, systemic via pea seedling roots; settings: 144 h, test rate 24 ppm, pea seedling roots in test solution, 6 days
Method: Example B9: Activity Against Myzus persicae (Green Peach Aphid)
Roots of pea seedlings infested with an aphid population of mixed ages were placed directly in the aqueous test solutions prepared from 10′000 DMSO stock solutions. The samples were assessed for mortality 6 days after placing seedlings in test solutions.

CCS(=O)(=O)c1cc(-c2cccc(Cl)n2)cnc1C(=O)N(C)c1nnc(C(F)(F)F)s1 [Compound P49]
≥ 80%: mortality at 200 ppm [1] | mortality at 200 ppm [2] | percent effect (mortality or growth inhibition) at 200 ppm [3] | percent control (mortality, anti-feedant effect or growth inhibition) at 200 ppm [4] | percent effect (mortality or growth inhibition) at 200 ppm [5]

CCS(=O)(=O)c1cc(-c2cc(C#N)ccn2)cnc1C(=O)N(C)c1nnc(C(F)(F)F)s1 [Compound P61]
≥ 80%: mortality at 200 ppm [1] | mortality at 200 ppm [2] | percent control (mortality, anti-feedant effect or growth inhibition) at 12.5 ppm [6] | percent effect (mortality or growth inhibition) at 200 ppm [3] | percent control (mortality, anti-feedant effect or growth inhibition) at 200 ppm [4] | mortality at 200 ppm [7] | percent effect (mortality or growth inhibition) at 200 ppm [5] | mortality at 200 ppm [8]

CCS(=O)(=O)c1cc(-c2cc(C(F)(F)F)ccn2)cnc1C(=O)N(C)c1nnc(C(F)(F)F)s1 [Compound P65]
≥ 80%: mortality at 200 ppm [1] | percent effect (mortality or growth inhibition) at 200 ppm [3] | percent control (mortality, anti-feedant effect or growth inhibition) at 200 ppm [4] | mortality at 200 ppm [9] | percent effect (mortality or growth inhibition) at 200 ppm [5] | mortality at 200 ppm [8]

CCS(=O)(=O)c1cc(-c2ccccc2)cnc1C(=O)N(C)c1nnc(C(F)(F)F)s1 [Compound P5, 3-ethylsulfonyl-N-methyl-5-phenyl-N-[5-(trifluoromethyl)-1,3,4-thiadiazol-2-yl]pyridine-2-carboxamide]
≥ 80%: mortality at 200 ppm [1] | mortality at 200 ppm [10] | percent control (mortality, anti-feedant effect or growth inhibition) at 12.5 ppm [6] | percent effect (mortality or growth inhibition) at 200 ppm [3] | percent control (mortality, anti-feedant effect or growth inhibition) at 200 ppm [4] | mortality at 200 ppm [9] | percent effect (mortality or growth inhibition) at 200 ppm [5] | mortality at 200 ppm [8]

CCS(=O)(=O)c1cc(-c2cncnc2)cnc1C(=O)N(C)c1nnc(C(F)(F)F)s1 [Compound P58]
≥ 80%: mortality at 24 ppm [11] | percent effect (mortality or growth inhibition) at 200 ppm [5] | mortality at 200 ppm [8]

CCS(=O)(=O)c1cc(-c2ccc(Cl)c(Cl)c2)cnc1C(=O)N(C)c1nnc(C(F)(F)F)s1 [Compound P36]
≥ 80%: mortality at 200 ppm [1] | mortality at 200 ppm [2] | percent effect (mortality or growth inhibition) at 200 ppm [3] | percent control (mortality, anti-feedant effect or growth inhibition) at 200 ppm [4] | percent effect (mortality or growth inhibition) at 200 ppm [5]

CCS(=O)(=O)c1cc(C2(C#N)CC2)cnc1C(=O)N(C)c1nnc(C(F)(F)C(F)(F)F)s1 [Compound P20, 5-(1-cyanocyclopropyl)-3-ethylsulfonyl-N-methyl-N-[5-(1,1,2,2,2-pentafluoroethyl)-1,3,4-thiadiazol-2-yl]pyridine-2-carboxamide]
≥ 80%: mortality at 200 ppm [1] | mortality at 200 ppm [10] | percent control (mortality, anti-feedant effect or growth inhibition) at 12.5 ppm [6] | percent effect (mortality or growth inhibition) at 200 ppm [3] | percent control (mortality, anti-feedant effect or growth inhibition) at 200 ppm [4] | mortality at 200 ppm [7] | mortality at 200 ppm [9] | percent effect (mortality or growth inhibition) at 200 ppm [5] | mortality at 200 ppm [8]

CCS(=O)(=O)c1cc(-c2ccc(Cl)cc2)cnc1C(=O)N(C)c1nnc(C(F)(F)C(F)(F)F)s1 [Compound P14]
≥ 80%: mortality at 200 ppm [1] | percent control (mortality, anti-feedant effect or growth inhibition) at 12.5 ppm [6] | percent effect (mortality or growth inhibition) at 200 ppm [3] | percent control (mortality, anti-feedant effect or growth inhibition) at 200 ppm [4] | mortality at 200 ppm [9] | percent effect (mortality or growth inhibition) at 200 ppm [5] | mortality at 200 ppm [8]

CCS(=O)(=O)c1cc(-c2cc(F)ccc2F)cnc1C(=O)N(C)c1nnc(C(F)(F)F)s1 [Compound P33]
≥ 80%: mortality at 200 ppm [1] | mortality at 200 ppm [2] | percent control (mortality, anti-feedant effect or growth inhibition) at 12.5 ppm [6] | percent effect (mortality or growth inhibition) at 200 ppm [3] | percent control (mortality, anti-feedant effect or growth inhibition) at 200 ppm [4] | mortality at 200 ppm [7] | percent effect (mortality or growth inhibition) at 200 ppm [5] | mortality at 200 ppm [8]
